The source of these data is ChEMBL document CHEMBL5365447, “Pronucleotides of 2',3'-Dideoxy-2',3'-Didehydrothymidine as Potent Anti-HIV Compounds” (J Med Chem, 2023).

Activity calls are given as the source filed them. No cut-off for these calls is given here. Bounds are passed on as bounds.

For data set [1], the system named is Human immunodeficiency virus 1. Nature of the data set: Potency index, ratio of 3'-deoxy-2',3'-dehydrothymidine EC50 to compound EC50 for antiviral activity against HIV-1 HE infected in wild-type human CEM/0 cells. Format: functional.
The nature of data set [2]: Cytotoxicity against human CEM cells assessed as reduction in cell viability incubated for 4 to 5 days by light microscopic analysis. The class given is toxicity, cell-based. Particulars: CEM cells (CCRF-CEM), time 4-5 day.
The subject of data set [3] is Human immunodeficiency virus 2. Nature of the data set: Potency index, ratio of 3'-deoxy-2',3'-dehydrothymidine EC50 to compound EC50 for antiviral activity against HIV-2 ROD infected in wild-type human CEM/0 cells. The class given is functional.
Data set [4] can be described thus: Retention time of the compound by HPLC analysis. The class given is physicochemical.
Data set [5] relates to Human immunodeficiency virus 2. Nature of the data set: Potency index, ratio of 3'-deoxy-2',3'-dehydrothymidine EC50 to compound EC50 for antiviral activity against HIV-2 ROD infected in thymidine kinase-deficient human CEM[…] cells. The class given is functional.
The nature of data set [6]: Prodrug conversion in pH 7.3 phosphate buffer assessed as ((2S,5R)-5-(5-methyl-2,4-dioxo-3,4-dihydropyrimidin-1(2H)-yl)-2,5-dihydrofuran-2-yl)methyl tri-hydrogen diphosphate formation by measuring half life in presence of pig liver esterase by HPLC analysis. Format: ADME.
Data set [7] concerns Human immunodeficiency virus 2. The data set can be described thus: Antiviral activity against HIV-2 ROD infected in thymidine kinase-deficient human CEM cells assessed as inhibition of virus-induced cytopathic effect incubated for 4 to 5 days by light microscopic analysis. Format: functional, organism-based. Particulars: Human immunodeficiency virus 2, ROD, CCRF-CEM.
Data set [8] has as its system Human immunodeficiency virus 2. The data set can be described thus: Antiviral activity against HIV-2 ROD infected in wild-type human CEM/0 cells assessed as inhibition of virus-induced cytopathic effect incubated for 4 to 5 days by light microscopic analysis. Format: functional, organism-based. Particulars: Human immunodeficiency virus 2, ROD, CCRF-CEM. (In general: Cytopathic effects are the visible damage that an infection or toxin causes in cultured cells.)

Data set [9] is described as follows: Chemical stability of the compound in phosphate buffer assessed as half life at pH 7.3 by HPLC analysis. The class given is physicochemical.
Data set [10] addresses T1, DNA polymerase alpha catalytic subunit (Homo sapiens) (UniProt P09884).
T1 sequence (whole entry): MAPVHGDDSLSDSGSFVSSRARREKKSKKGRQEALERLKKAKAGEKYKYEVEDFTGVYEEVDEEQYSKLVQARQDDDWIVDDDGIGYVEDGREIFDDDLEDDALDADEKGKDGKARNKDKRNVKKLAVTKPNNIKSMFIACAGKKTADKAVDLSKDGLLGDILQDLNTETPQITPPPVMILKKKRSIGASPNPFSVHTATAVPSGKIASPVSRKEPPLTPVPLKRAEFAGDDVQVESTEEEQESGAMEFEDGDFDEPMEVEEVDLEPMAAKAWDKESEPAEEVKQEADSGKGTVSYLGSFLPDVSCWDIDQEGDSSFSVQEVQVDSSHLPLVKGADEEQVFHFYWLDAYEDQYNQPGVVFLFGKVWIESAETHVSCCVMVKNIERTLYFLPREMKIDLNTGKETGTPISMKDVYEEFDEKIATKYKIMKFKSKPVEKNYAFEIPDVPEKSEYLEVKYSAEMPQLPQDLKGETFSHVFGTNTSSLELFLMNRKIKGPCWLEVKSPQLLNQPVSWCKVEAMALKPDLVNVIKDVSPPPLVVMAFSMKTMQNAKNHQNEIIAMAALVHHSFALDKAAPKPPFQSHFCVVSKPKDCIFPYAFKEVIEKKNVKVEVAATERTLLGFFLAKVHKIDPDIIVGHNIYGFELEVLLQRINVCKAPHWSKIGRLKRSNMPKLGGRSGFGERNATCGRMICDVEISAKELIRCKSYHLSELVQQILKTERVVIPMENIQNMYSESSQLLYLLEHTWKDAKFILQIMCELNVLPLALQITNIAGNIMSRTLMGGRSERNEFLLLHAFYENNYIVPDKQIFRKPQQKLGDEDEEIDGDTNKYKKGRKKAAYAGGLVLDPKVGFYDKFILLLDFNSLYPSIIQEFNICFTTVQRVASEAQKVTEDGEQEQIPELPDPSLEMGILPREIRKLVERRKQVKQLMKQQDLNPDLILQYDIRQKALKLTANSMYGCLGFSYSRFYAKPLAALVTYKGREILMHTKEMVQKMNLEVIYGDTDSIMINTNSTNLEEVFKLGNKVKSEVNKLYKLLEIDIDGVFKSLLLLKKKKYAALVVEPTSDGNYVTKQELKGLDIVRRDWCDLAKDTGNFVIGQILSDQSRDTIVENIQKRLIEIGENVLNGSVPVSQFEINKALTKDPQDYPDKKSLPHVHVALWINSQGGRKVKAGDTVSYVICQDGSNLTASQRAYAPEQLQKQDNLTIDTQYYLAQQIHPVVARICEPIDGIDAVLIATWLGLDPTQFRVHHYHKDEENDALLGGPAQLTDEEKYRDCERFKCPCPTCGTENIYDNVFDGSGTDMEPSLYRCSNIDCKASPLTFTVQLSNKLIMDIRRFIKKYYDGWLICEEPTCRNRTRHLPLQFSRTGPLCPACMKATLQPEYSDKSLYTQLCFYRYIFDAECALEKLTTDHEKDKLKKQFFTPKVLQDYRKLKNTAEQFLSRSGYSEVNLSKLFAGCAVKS
Nature of the data set: Substrate activity at human DNA polymerase alpha measured after 4 hrs by electrophoresis based primer extension assay.

Data set [11] can be described thus: Prodrug conversion in human CEM/0 cell extract assessed as metabolite formation by measuring half life by HPLC analysis. Format: ADME. Particulars: ccrf-cem.
Data set [12] has as its target T2, DNA polymerase subunit gamma-1 (Homo sapiens) (UniProt P54098).
T2 sequence (whole entry): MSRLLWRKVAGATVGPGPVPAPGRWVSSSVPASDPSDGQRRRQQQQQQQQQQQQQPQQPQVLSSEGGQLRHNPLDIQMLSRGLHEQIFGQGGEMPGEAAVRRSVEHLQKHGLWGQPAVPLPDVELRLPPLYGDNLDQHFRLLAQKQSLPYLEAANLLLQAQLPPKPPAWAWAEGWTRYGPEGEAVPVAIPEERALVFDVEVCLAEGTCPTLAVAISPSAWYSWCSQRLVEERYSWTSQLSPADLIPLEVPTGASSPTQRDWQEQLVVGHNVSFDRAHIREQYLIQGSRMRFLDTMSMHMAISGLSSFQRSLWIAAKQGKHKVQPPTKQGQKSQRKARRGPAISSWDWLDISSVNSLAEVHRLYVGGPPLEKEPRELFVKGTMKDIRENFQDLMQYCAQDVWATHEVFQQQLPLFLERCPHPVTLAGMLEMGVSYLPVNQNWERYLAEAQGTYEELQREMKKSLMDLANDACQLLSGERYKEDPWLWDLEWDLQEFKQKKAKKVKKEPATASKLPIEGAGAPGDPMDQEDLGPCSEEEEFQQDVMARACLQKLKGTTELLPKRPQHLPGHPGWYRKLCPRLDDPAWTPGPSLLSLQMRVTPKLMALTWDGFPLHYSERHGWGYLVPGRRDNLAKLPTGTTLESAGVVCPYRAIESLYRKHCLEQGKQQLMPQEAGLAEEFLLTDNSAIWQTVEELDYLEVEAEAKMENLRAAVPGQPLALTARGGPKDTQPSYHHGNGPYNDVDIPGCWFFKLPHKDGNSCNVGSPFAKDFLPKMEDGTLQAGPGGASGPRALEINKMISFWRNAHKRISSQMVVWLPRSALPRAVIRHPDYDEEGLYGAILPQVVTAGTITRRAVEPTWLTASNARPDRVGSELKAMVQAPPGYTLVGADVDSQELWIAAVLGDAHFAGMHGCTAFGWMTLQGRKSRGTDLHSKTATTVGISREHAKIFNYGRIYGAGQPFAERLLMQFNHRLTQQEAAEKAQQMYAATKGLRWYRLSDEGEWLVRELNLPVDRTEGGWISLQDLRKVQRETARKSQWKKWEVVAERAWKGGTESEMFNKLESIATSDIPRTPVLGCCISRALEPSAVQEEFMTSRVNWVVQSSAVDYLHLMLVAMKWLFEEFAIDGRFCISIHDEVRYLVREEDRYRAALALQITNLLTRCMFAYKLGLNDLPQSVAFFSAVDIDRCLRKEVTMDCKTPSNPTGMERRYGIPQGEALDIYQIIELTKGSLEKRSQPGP
The data set can be described thus: Substrate activity at human DNA polymerase gamma measured after 4 hrs by electrophoresis based primer extension assay.

In data set [13] the test system is Human immunodeficiency virus 1. Nature of the data set: Antiviral activity against HIV-1 HE infected in wild-type human CEM/0 cells assessed as inhibition of virus-induced cytopathic effect incubated for 4 to 5 days by light microscopic analysis. The class given is functional, organism-based. Particulars: Human immunodeficiency virus 1, HE, CCRF-CEM.
The subject of data set [14] is Human immunodeficiency virus. The data set can be described thus: Substrate activity at HIV reverse transcriptase measured after 4 hrs by electrophoresis based primer extension assay.
A short description of data set [15]: Selectivity index, ratio of CC50 for human CEM cells to EC50 for HIV-2 ROD infected in thymidine kinase-deficient human CEM cells. The class given is toxicity. Particulars: read-out: Ratio CC50/EC50.
Data set [16] addresses DNA polymerase beta (Homo sapiens) (UniProt P06746). The data set can be described thus: Substrate activity at human DNA polymerase beta measured after 4 hrs by electrophoresis based primer extension assay.
A short description of data set [17]: Prodrug conversion in human CEM/0 cell extract assessed as ((2S,5R)-5-(5-methyl-2,4-dioxo-3,4-dihydropyrimidin-1(2H)-yl)-2,5-dihydrofuran-2-yl)methyl dihydrogen phosphate formation by HPLC analysis. Format: ADME. The following applies: ccrf-cem.
Data set [18] in a line: Prodrug conversion in pH 7.3 phosphate buffer assessed as ((2S,5R)-5-(5-methyl-2,4-dioxo-3,4-dihydropyrimidin-1(2H)-yl)-2,5-dihydrofuran-2-yl)methyl dihydrogen phosphate formation by measuring half life in presence of pig liver esterase by HPLC analysis. The class given is ADME.
A short description of data set [19]: Chemical stability of the compound in phosphate buffer saline assessed as half life at pH 7.3 by HPLC analysis. The class given is physicochemical. The following applies: phosphate buffered saline.
A short description of data set [20]: Prodrug conversion in human CEM/0 cell extract assessed as ((2S,5R)-5-(5-methyl-2,4-dioxo-3,4-dihydropyrimidin-1(2H)-yl)-2,5-dihydrofuran-2-yl)methyl tri-hydrogen diphosphate formation by HPLC analysis. The class given is ADME. Particulars: ccrf-cem.

On to `CCCCCCCCCCCCCCCCCCOP(=O)(OCC(CC)CCCC)OP(=O)(O)OP(=O)(O)OC[C@@H]1C=C[C@H](n2cc(C)c(=O)[nH]c2=O)O1.N.N` (stereo partly specified), for which the results for the “Ratio EC50” value in data set [1], in [3] and in data set [5] were 4, 4 and 10000, respectively. Further, the CC50 in [2] came to 34 µM. Moreover, in data set [4], the Retention_time was 17.3 min. The Drug metabolism entry in data set [6] and in [11] was “Metabolite_Notdetected” each time. The EC50 is 5 nM in data set [7], 36 nM in data set [8] and 75 nM in [13]. Also, the half-life in [9] was greater than 83.3 days. Further, the outcome in [10], in [12] and in data set [16] was inactive. Besides, the result in data set [14] was Active. In addition, the selectivity ratio in data set [15] was determined as 6800.

On to `CCCCCCCCCCCCCCCCCCOP(=O)(OCCCCCCCC)OP(=O)(O)OC[C@@H]1C=C[C@H](n2cc(C)c(=O)[nH]c2=O)O1.N` (stereo partly specified), for which the Drug metabolism result in data set [17] is recorded as “Metabolite_Detected”; in data set [18] it was “Metabolite_Notdetected”; in [11] it was “Metabolite_Notdetected”; in [20], “Metabolite_Notdetected”. The CC50 in data set [2] was determined as 46.5 µM. In data set [4], this compound yielded a Retention_time of 20.8 min. The values for the concentration for a half-maximal effect (EC50) in data set [7], in data set [8] and in data set [13] were 11 nM, 45 nM and 71 nM, respectively. Moreover, the outcome in [10], in data set [12] and in data set [16] was inactive. Moreover, the half-life in data set [19] was greater than 41.7 days. Besides, the selectivity ratio in data set [15] was 4220.

As to `CCCCCCCCCCCCCCCCCCOP(=O)(OC)OP(=O)(O)OP(=O)(O)OC[C@@H]1C=C[C@H](n2cc(C)c(=O)[nH]c2=O)O1.N.N` (stereo partly specified), the results for the “Ratio EC50” value in data set [1], in data set [3] and in [5] were 4, 4 and 10000, respectively. In data set [2], the CC50 was determined as 34 µM. In [4], the Retention_time is given as 15.6 min. Moreover, the t1/2 in data set [6] was greater than 150 h; in data set [11], greater than 15 h. Further, the EC50 in data set [7] worked out at 15 nM; in data set [8], 25 nM; in data set [13], 77 nM. For the same compound, in data set [9], the half-life is 32.9 days. In addition, the result in data set [10], in [12] and in data set [16] was inactive. The result in data set [14] was Active. Moreover, in data set [15], the selectivity ratio worked out at 2270.

In the case of `CCCCCCCCCCCCCCCCCCP(=O)(OCCCCCCCCCCCC)OP(=O)(O)OP(=O)(O)OC[C@@H]1C=C[C@H](n2cc(C)c(=O)[nH]c2=O)O1.N.N` (stereo partly specified), the “Ratio EC50” value in data set [1] is reported as 4; in [3], 4; in [5], 10000. For the same compound, the 50% cytotoxic concentration (CC50) in data set [2] worked out at 50 µM. This compound also yielded a Retention_time in data set [4] of 18.9 min. The Drug metabolism result in data set [6] and in data set [11] was “Metabolite_Notdetected” in each case. The half-maximal effective concentration (EC50) in data set [7] worked out at 350 nM; in data set [8], 210 nM; in data set [13] it was 130 nM. Besides, the half-life in data set [9] was 34.6 days. The result in [10], in [12] and in data set [16] was inactive. Further, in data set [15], the selectivity ratio amounted to 143.

For orientation: CC50 means the concentration at which the toxic effect on the cells reaches its halfway point. For orientation: EC50 means the concentration that produces a half-maximal response. As usually defined, the half-life is the time in which the quantity being followed falls by half.
